Data as given in patent publication US10881653B2, “Tricyclic compounds and their use in the treatment of cancer” (The United States of America, as represented by the …, priority 2015, dated 2021).
Structures can show the parent of a compound that is named as a salt. Where two headings read alike, the source gives them in different places.

Legend:
[1] = target: T1, recombinant thioredoxin reductase 1 (TrxR1) (Homo sapiens, UniProt Q16881); test: Inhibition of recombinant TrxR1 (DTNB assay); type: biochemical
T1 sequence (Q16881 1-649): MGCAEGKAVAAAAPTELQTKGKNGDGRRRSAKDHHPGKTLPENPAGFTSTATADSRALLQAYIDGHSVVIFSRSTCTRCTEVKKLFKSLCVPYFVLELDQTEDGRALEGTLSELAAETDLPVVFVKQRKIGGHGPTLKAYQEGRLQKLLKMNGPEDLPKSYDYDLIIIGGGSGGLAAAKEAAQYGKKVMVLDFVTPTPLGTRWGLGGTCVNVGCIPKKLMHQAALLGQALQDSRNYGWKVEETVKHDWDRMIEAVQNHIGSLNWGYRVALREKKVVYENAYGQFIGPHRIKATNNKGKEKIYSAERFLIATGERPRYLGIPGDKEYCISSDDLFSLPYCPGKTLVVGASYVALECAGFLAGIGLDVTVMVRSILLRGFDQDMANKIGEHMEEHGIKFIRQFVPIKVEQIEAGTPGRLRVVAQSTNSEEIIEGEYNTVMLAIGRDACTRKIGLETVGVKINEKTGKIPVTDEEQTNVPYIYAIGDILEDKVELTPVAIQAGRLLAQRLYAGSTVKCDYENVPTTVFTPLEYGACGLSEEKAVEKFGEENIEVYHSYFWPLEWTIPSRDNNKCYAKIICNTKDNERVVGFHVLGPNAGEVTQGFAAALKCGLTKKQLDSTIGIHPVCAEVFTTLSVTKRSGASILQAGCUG
Method in brief: (§1)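 Human TrxR1 (15 nM) or GR (2 nM) preincubated 15 min with compound, 250 μM NADPH, 0.1 mg/ml BSA in 50 mM Tris pH 7.5, 2 mM EDTA, 1% DMSO. Reaction started with 2.5 mM DTNB (TrxR1, A412) or 1 mM GSSG (GR, A340). Percent activity relative to DMSO and no-enzyme blanks.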

[2] = target: T2, gluthathione reductase (GR) (Homo sapiens, UniProt P00390); test: Inhibition of recombinant GR (GSSG assay); type: biochemical
T2 sequence (P00390 44-522): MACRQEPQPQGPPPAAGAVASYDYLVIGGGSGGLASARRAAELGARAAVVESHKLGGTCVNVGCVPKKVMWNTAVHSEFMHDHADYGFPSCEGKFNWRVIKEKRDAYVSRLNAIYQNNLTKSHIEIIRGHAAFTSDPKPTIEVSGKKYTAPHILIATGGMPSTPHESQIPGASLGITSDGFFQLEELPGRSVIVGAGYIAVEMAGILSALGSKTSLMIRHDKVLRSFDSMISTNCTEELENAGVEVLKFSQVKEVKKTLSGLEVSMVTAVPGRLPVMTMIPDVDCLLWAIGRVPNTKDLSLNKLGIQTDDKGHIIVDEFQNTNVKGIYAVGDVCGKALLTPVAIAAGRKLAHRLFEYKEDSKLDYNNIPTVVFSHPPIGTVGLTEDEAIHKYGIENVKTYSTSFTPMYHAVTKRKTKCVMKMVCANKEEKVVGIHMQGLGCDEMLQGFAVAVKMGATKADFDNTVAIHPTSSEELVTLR
Method in brief: as §1

[3] = Biological Example 4, assays of Biological Example 1, read-out: TrxR Inhibition
[4] = Biological Example 4, assays of Biological Example 1

| IC50 ([1]; Biological Example 1, 15 nM TrxR1, 250 μM NADPH, 15 minutes incubation, read-out: TrxR inhibition) [µM] | IC50 ([2]; Biological Example 1, 2 nM GR, 250 μM NADPH, 15 minutes incubation) [µM] | Structure (SMILES) | IC50 [1, 3] [µM] | IC50 [2, 4] [µM] |
| --- | --- | --- | --- | --- |
| – | – | O=C1C=CC2C3C(=O)N(c4ccccc4)C(=O)C3C1N2Cc1cccc(Cl)c1 (stereo not drawn) [Example 41, endo-11-(3-Chlorobenzyl)-4-phenyl-4,11-diazatricyclo[5.3.1.0^2,6]undec-9-ene-3,5,8-trione Trifluoroacetate] | 2.35 | 49.5 |
| – | – | O=C1C=CC2C3C(=O)N(c4ccccc4)C(=O)C3C1N2Cc1cccc(Cl)c1 (stereo not drawn) [Example 42, exo-11-(3-Chlorobenzyl)-4-phenyl-4,11-diazatricyclo[5.3.1.0^2,6]undec-9-ene-3,5,8-trione Trifluoroacetate] | 0.76 | 76.4 |
| – | – | O=C1C=CC2C3C(=O)N(c4ccccc4)C(=O)C3C1N2Cc1cc(F)cc(F)c1 (centres unmarked) [Example 43, 11-(3,5-Difluorobenzyl)-4-phenyl-4,11-diazatricyclo[5.3.1.0^2,6]undec-9-ene-3,5,8-trione Trifluoroacetate] | 1.59 | 91.7 |
| – | – | Cc1cccc(CN2[C@@H]3C(=O)C=C[C@H]2C2C(=O)N(C)C(=O)C23)c1 (some centres unmarked) [Example 52] | 1.81 | > 100 |
| – | – | CN1C(=O)C2C(C1=O)C1C(=O)C=CC2N1C (stereo not drawn) [Example 60, exo-4,11-Dimethyl-4,11-diazatricyclo[5.3.1.0^2,6]undec-9-ene-3,5,8-trione Trifluoroacetate] | 15.4 | > 100 |
| 7.4 | > 100 | Cc1cccc(CN2[C@@H]3C(=O)C=C[C@H]2C2C(=O)N(c4cccc(N5CCOCC5)c4)C(=O)C23)c1 (stereo partly drawn) [Example 69, endo-11-(3-Methylbenzyl)-4-(3-(4-morpholino)phenyl)-4,11-diazatricyclo-[5.3.1.0^2,6]undec-9-ene-3,5,8-trione Trifluoroacetate] | 4.15 | > 100 |
